Where a name gives a salt, the structure may show the parent alone.
target: IRAK4 (Homo sapiens (Human), UniProt Q9NWZ3); assay: IRAK4 kinase activity, IMAP fluorescence polarization assay; type: biochemical; settings: 100 μM ATP, 0.5 nM GST tagged IRAK4; read-out: IRAK4 IC50
Summary of the method: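 GST-tagged IRAK4 at 0.5 nM phosphorylates 100 nM fluorescent peptide substrate with 100 μM ATP in pH 7.2 Tris buffer containing MgCl2, DTT and Tween 20, 30 min at 25 °C. Reaction stopped with IMAP binding reagent; phosphorylation read as increased fluorescence polarization.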

Chain of IRAK4 (Q9NWZ3 whole entry): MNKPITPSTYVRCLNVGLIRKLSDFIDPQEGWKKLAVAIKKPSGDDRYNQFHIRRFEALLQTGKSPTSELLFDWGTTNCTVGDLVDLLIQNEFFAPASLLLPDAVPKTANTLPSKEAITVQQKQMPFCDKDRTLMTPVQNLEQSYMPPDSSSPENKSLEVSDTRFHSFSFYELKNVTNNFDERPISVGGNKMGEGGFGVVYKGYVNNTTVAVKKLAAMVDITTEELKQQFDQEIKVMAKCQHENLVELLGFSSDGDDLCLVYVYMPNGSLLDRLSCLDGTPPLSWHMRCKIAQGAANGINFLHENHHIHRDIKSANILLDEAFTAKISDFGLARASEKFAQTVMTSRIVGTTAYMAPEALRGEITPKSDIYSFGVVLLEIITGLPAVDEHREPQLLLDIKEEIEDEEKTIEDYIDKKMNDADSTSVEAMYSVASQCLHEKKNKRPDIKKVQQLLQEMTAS

Point of comparison: `O=c1[nH]c(N2CCOCC2)nc(NC2CCNC2)c1-c1nc2ccccc2s1` (stereo not drawn) [Example 85, 5-(Benzo[d]thiazol-2-yl)-2-morpholino-6-(pyrrolidin-3-ylamino)pyrimidin-4(3H)-one.HCl], IC50 0.177 µM. Against it:
- Cc1nccc2sc(-c3c(N[C@@H]4CCCNC4)nc(N4CCOCC4)[nH]c3=O)nc12 [Example 99, (R)-5-(4-Methylthiazolo[4,5-c]pyridin-2-yl)-2-morpholino-6-(piperidin-3-ylamino)pyrimidin-4(3H)-one.HCl] — 31-fold lower, 0.0057 µM
- NC(=O)c1ccc2sc(-c3c(N[C@@H]4CCCNC4)nc(N4CCOCC4)[nH]c3=O)nc2c1 [Example 347, (R)-2-(2-morpholino-6-oxo-4-(piperidin-3-ylamino)-1,6-dihydropyrimidin-5-yl)benzo[d]thiazole-5-carboxamide] — 18-fold lower, 0.01 µM
- O=c1[nH]c(N2CCOCC2)nc(N[C@@H]2CCCNC2)c1-c1nc2cccc(Cl)c2s1 [Example 339, (R)-5-(7-chlorobenzo[d]thiazol-2-yl)-2-morpholino-6-(piperidin-3-ylamino)pyrimidin-4(3H)-one] — within 1.5-fold, 0.18 µM
- C[C@@H]1CC[C@@H](Nc2nc(N3CCOCC3)[nH]c(=O)c2-c2nc3ccccc3s2)CN1 (racemic) [Example 124, 5-(benzo[d]thiazol-2-yl)-6((6-methylpiperidin-3-yl)amino)-2-morpholinopyrimidin-4(3H)-one.HCl] — 1.6-fold lower, 0.114 µM
- O=c1[nH]c(N2CCC2)nc(N[C@@H]2C[C@H](CO)[C@@H](O)[C@H]2O)c1-c1nc2ccccc2s1 [Example 31, 2-(Azetidin-1-yl)-5-(benzo[d]thiazol-2-yl)-6-(((1R,2S,3R,4R)-2,3-dihydroxy-4-(hydroxymethyl)cyclopentyl)amino)pyrimidin-4(3H)-one.HCl] — 2.6-fold lower, 0.067 µM
- O=c1[nH]c(N2CCCC2)nc(N[C@@H]2CCCNC2)c1-c1nc2c(C3CC3)nccc2s1 [Example 118, (R)-5-(4-cyclopropylthiazolo[4,5-c]pyridin-2-yl)-6-(piperidin-3-ylamino)-2-(pyrrolidin-1-yl)pyrimidin-4(3H)-one.HCl] — 13-fold lower, 0.014 µM
- CC(C)(C)c1ccc2sc(-c3c(N[C@@H]4CCCNC4)nc(N4CCOCC4)[nH]c3=O)nc2c1 [Example 342, (R)-5-(5-tert-butylbenzo[d]thiazol-2-yl)-2-morpholino-6-(piperidin-3-ylamino)pyrimidin-4(3H)-one] — 7.3-fold higher, 1.3 µM

same assay, conditions: 100 μM ATP; read-out: IC50

Point of comparison: `CN(C)CCNc1nc(N2CCOCC2)[nH]c(=O)c1-c1ccc2ccccc2n1` [Example 272, 6-[[2-(dimethylamino)ethyl]amino]-2-(morpholin-4-yl)-5-(quinolin-2-yl)-3,4-dihydropyrimidin-4-one], IC50 1.6 µM. Against it:
- O=c1[nH]c(N2CCOCC2)nc(NCCN2CCC(O)CC2)c1-c1nc2ccccc2s1 [Example 258, 5-(1,3-benzothiazol-2-yl)-6-[[2-(4-hydroxypiperidin-1-yl)ethyl]amino]-2-(morpholino-4-yl)-3,4-dihydropyrimidin-4-one] — 2.1-fold lower, 0.78 µM
- O=c1[nH]c(N[C@@H]2c3ccccc3C[C@@H]2O)nc(N[C@@H]2CCCNC2)c1-c1nc2ccccc2s1 [Example 299, 5-(1,3-benzothiazol-2-yl)-2-[[(1R,2S)-2-hydroxy-2,3-dihydro-1H-inden-1-yl]amino]-6-[[(3R)-piperidin-3-yl]amino]pyrimidin-4-ol formic acid] — within 1.5-fold, 1.2 µM
- CCN1CCC(c2nc(N[C@@H]3CCCNC3)c(-c3nc4ccccc4s3)c(=O)[nH]2)CC1 [Example 227] — within 1.5-fold, 1.4 µM
- O=C1C[C@@H](Nc2nc(N[C@@H]3CCCNC3)c(-c3nc4ccccc4s3)c(=O)[nH]2)Cc2ccccc2N1 [Example 303, (S)-4-(5-(benzo[d]thiazol-2-yl)-6-oxo-4-((R)-piperidin-3-ylamino)-1,6-dihydropyrimidin-2-ylamino)-4,5-dihydro-1H-benzo[b]azepin-2(3H)-one] — 3.7-fold higher, 5.9 µM
- NC1CCCCC1Nc1nc(N2CCOCC2)[nH]c(=O)c1-c1nc2ccccc2s1 (stereo not drawn) [Example 263, 6-(2-aminocyclohexylamino)-5-(benzo[d]thiazol-2-yl)-2-morpholino-pyrimidin-4(3H)-one] — 7-fold lower, 0.23 µM
- CN(CCO)c1nc(N[C@@H]2CCCNC2)c(-c2nc3ccccc3s2)c(=O)[nH]1 [Example 292, (R)-5-(benzo[d]thiazol-2-yl)-2-((2-hydroxyethyl)(methyl)amino)-6-(piperidin-3-ylamino)pyrimidin-4(3H)-one] — 8.4-fold lower, 0.19 µM
- CN(c1nc(N[C@@H]2CCCNC2)c(-c2nc3ccccc3s2)c(=O)[nH]1)[C@H](CO)c1ccccc1 [Example 310, 5-(1,3-benzothiazol-2-yl)-2-[[(1S)-2-hydroxy-1-phenylethyl](methyl)amino]-6-[[(3R)-piperidin-3-yl]amino]-3,4-dihydropyrimidin-4-one; trifluoroacetic acid] — 6.4-fold lower, 0.25 µM
- CN(C)CCNc1nc(N2CCOCC2)[nH]c(=O)c1-c1nc2ccccc2s1 [Example 260, 5-(1,3-benzothiazol-2-yl)-6-[[2-(dimethylamino)ethyl]amino]-2-(morpholin-4-yl)-3,4-dihydropyrimidin-4-one] — the same, 1.6 µM
- O=c1[nH]c(N2CCOCC2)nc(N[C@H]2CNCC[C@@H]2F)c1-c1nc2ccccc2s1 [Example 213, 5-(benzo[d]thiazol-2-yl)-6-(((3S,4S)-4-fluoropiperidin-3-yl)amino)-2-morpholinopyrimidin-4(3H)-one] — 110-fold lower, 0.014 µM
- CN1CCCC(Nc2nc(N3CCOCC3)[nH]c(=O)c2-c2nc3ccccc3s2)C1 (stereo not drawn) [Example 252, 5-(1,3-benzothiazol-2-yl)-6-[(1-methylpiperidin-3-yl)amino]-2-(morpholin-4-yl)-3,4-dihydro-pyrimidin-4-one] — within 1.5-fold, 1.2 µM

same assay, conditions: 100 μM ATP; read-out: IRAK4 IC50

Point of comparison: `CC(C)(O)C1CCN(c2nc(N[C@@H]3CCCNC3)c(-c3ccc4ccccc4n3)c(=O)[nH]2)C1` (stereo partly drawn) [Example 184, 2-(3-(2-hydroxypropan-2-yl)pyrrolidin-1-yl)-6-((R)-piperidin-3-ylamino)-5-(quinolin-2-yl)pyrimidin-4(3H)-one], IC50 0.042 µM. Against it:
- O=c1[nH]c(N2CCN(c3ccccc3C(F)(F)F)CC2)nc(N[C@@H]2CCCNC2)c1-c1nc2ccccc2s1 [Example 148, (R)-5-(benzo[d]thiazol-2-yl)-6-(piperidin-3-ylamino)-2-(4-(2-(trifluoromethyl)phenyl)piperazin-1-yl)pyrimidin-4(3H)-one] — within 1.5-fold, 0.045 µM
- COc1ccc(N2CCN(c3nc(N[C@@H]4CCCNC4)c(-c4nc5ccccc5s4)c(=O)[nH]3)CC2)cc1 [Example 154, (R)-5-(benzo[d]thiazol-2-yl)-2-(4-(4-methoxyphenyl)piperazin-1-yl)-6-(piperidin-3-ylamino)pyrimidin-4(3H)-one] — 4.2-fold lower, 0.01 µM
- O=c1[nH]c(N2CCOC(CCO)C2)nc(N[C@@H]2CCCNC2)c1-c1nc2ccccc2s1 (stereo partly drawn) [Example 129, 5-(benzo[d]thiazol-2-yl)-2-(2-(2-hydroxyethyl)morpholino)-6-((R)-piperidin-3-ylamino)pyrimidin-4(3H)-one] — within 1.5-fold, 0.057 µM
- Cc1cnc(C)c(N2CCN(c3nc(N[C@@H]4CCCNC4)c(-c4nc5ccccc5s4)c(=O)[nH]3)CC2)n1 [Example 160, (R)-5-(benzo[d]thiazol-2-yl)-2-(4-(3,6-dimethylpyrazin-2-yl)piperazin-1-yl)-6-(piperidin-3-ylamino)pyrimidin-4(3H)-one] — 1.9-fold lower, 0.022 µM

Reference: patent US9221809B2 (MERCK SHARP & DOHME CORP., priority 2011, dated 2015)
